In data set [1] the target is T1, Glutamate NMDA receptor; GRIN1/GRIN2A (Homo sapiens) (UniProt Q05586+Q12879). In words: Positive allosteric modulation of GluN1/GluN2A receptor (unknown origin) stably expressed in HEK293 cells assessed as glutamate/glycine induced increase in intracellular calcium level at 10 uM incubated for 30 mins followed by addition of glutamate/glycine by Ca2+ influx assay. The note with it: filed as positive allosteric modulator. Format: cell-based. In general terms: Calcium assays in cells follow changes in intracellular calcium, usually with a dye or a luminescent sensor.

Data set [2] relates to Mus musculus. In words: Neuroprotective activity in middle cerebral artery occlusion-induced C57BL/6 mouse model assessed as reduction in infarct volume at 2 mg/kg, sc incubated with compound for 2 hrs after reperfusion by TTC staining based assay. It counts as functional.
For data set [3], the system named is PC-12. In words: Neuroprotective activity against glutamate-induced neurotoxicity in rat PC-12 cells assessed as survival rate at 0.1 uM by WST-8 assay (reference value: 40.8+/-2.0%). Format: functional.
In data set [4] the test system is PC-12. In words: Neuroprotective activity against glutamate-induced neurotoxicity in rat PC-12 cells assessed as survival rate at 1 uM by WST-8 assay. Format: functional.
In data set [5] the test system is PC-12. In words: Neuroprotective activity against glutamate-induced neurotoxicity in rat PC-12 cells assessed as survival rate at 10 uM by WST-8 assay. It counts as functional.
Data set [6] concerns PC-12. In words: Cytotoxicity in rat PC-12 cells assessed as reduction in cell viability at 10 uM incubated for 24 hrs by CCK-8 method. Format: toxicity, cell-based. The note with it: pc-12, 24 h. A general note: Tetrazolium dyes change colour on reduction, which living cells bring about.
A short description of data set [7]: Solubility of the compound in water by UV spectophotometry analysis. Format: physicochemical.
Data set [8] addresses Glutamate NMDA receptor; GRIN1/GRIN2B (Homo sapiens) (UniProt Q05586+Q13224). In words: Positive allosteric modulation of GluN1/GluN2B receptor (unknown origin) stably expressed in HEK293 cells assessed as glutamate/glycine induced increase in intracellular calcium level at 10 uM incubated for 30 mins followed by addition of glutamate/glycine by Ca2+ influx assay. It counts as cell-based.

Data set [9] has as its system Mus musculus. In words: Neuroprotective activity in middle cerebral artery occlusion-induced C57BL/6 mouse model assessed as reduction in infarct volume at 2 mg/kg, sc incubated with compound for 2 hrs after reperfusion by TTC staining based assay relative to control. Format: functional. Details: scale not given: the % may be the effect or the level left.
For data set [10], the target named is T1, Glutamate NMDA receptor; GRIN1/GRIN2A (Homo sapiens). In words: Positive allosteric modulation of GluN1/GluN2A receptor (unknown origin) stably expressed in HEK293 cells assessed as ratio of Fmax/F0 fluorescence curve value. It counts as cell-based. To be noted: filed as positive allosteric modulator.
Setting [11] is: filed as positive allosteric modulator.

Values after ≈ are worked out from the molar mass of the structure shown. Active and inactive are the calls of the source. No cut-off for these calls is given here.

What is called solubility is the dissolved amount per volume that the medium holds. Consider `CC(=O)Nc1ccc(NC(=O)c2c[nH]c3c(Cl)cccc3c2=O)cc1`, for which the result in [1] and in data set [8] (setting [11]) was Active. The Activity in the data set with Mus musculus [2] is listed as 96 mm; with PC-12 [3], 61.5%; in the data set on PC-12 [4], 62%; in the data set with PC-12 [5] it was 62.7%; with PC-12 [6], 91.9%. In data set [7], this compound showed a solubility of 34.7 µM (≈ 12.3 µg/mL).
`Cc1ccc(O)cc1NC(=O)c1c[nH]c2ccccc2c1=O`: the outcome in [1] was Active. Also, the Activity in the data set with Mus musculus [9] was 45%; in the data set with PC-12 [3] it was 59.5%; in the data set on PC-12 [4], 52%; in the data set with PC-12 [5] it was 50.2%; in the data set with PC-12 [6], 63.6%. This compound also came in with a solubility in data set [7] of 29.6 µM (≈ 8.71 µg/mL). Further, in data set [10], the Ratio came out at 154. The result in data set [8] was inactive.
Consider `CCOc1cc(Cl)c(Cl)c(/C=N/NC(=O)c2ccccc2Br)c1O`, for which the result in [1] and in [8] (setting [11]) was Active. Moreover, the Activity was 31.33% in the data set on Mus musculus [9]; 149 mm in the data set on Mus musculus [2]; 44.3% with PC-12 [3]; 53.1% in the data set with PC-12 [4]; 8.6% with PC-12 [5]; 40.2% with PC-12 [6]. Besides, the Ratio in [10] turned out to be 152.

Values taken from ChEMBL document CHEMBL5252626, “Design and synthesis of novel GluN2A NMDAR positive allosteric modulators via scaffold hopping strategy as anti-stroke therapeutic agents” (Bioorg Med Chem, 2023).
